The record followed here is patent US20140275277A1, “PHARMACEUTICAL COMPOSITION OF S-KETAMINE HYDROCHLORIDE” (JANSSEN PHARMACEUTICA NV, priority 2013, published 2014).

Test [1] concerns environmental isolate Staphylococcus haemolyticus. The experiment in a line: Microbial challenge test (Example 1). To be noted: spike 10^5-10^6 CFU/ml. It counts as cell-based. The text has this:
A challenge test was initiated to investigate whether the formulation could prevent microorganisms from proliferating. The challenge test consisted of challenging the formulation with a prescribed inoculum of microorganisms. The inoculated formulation was then stored at room temperature and at specified time intervals a sample was withdrawn to count the microorganisms in the sample.

The subject of test [2] is A. brasiliensis. Description: Full AET Challenge Test (Example 2). It counts as cell-based, Aspergillus brasiliensis. To be noted: after 28 days of incubation at room temperature; spike 10^5-10^6 CFU/ml. How it is done: (§1) The formulations listed in Table 3 were additionally subjected to a Full AET challenge, with results for the individual formulations are shown in Tables 5-8, below. Additionally, Table 9 below, provides results for a Full AET challenge of a reference formulation containing 0.00 mg/mL S-ketamine hydrochloride, denatonium benzoate (to mimic the taste of the S-ketamine HCl formulation(s)), and adjusted to pH 5.21 with 1N NaOH.

Test [3] has as its system C. albicans. The experiment in a line: Full AET Challenge Test (Example 2). Conditions: after 28 days; spike 10^5-10^6 CFU/ml. It counts as cell-based, Candida albicans. How it is done: as §1
Test [4] concerns P. aeruginosa. The experiment in a line: Full AET Challenge Test (Example 2). Type of test: cell-based, Pseudomonas aeruginosa. Conditions: after 28 days; spike 10^5-10^6 CFU/ml. Here is the method:
as §1

Test [5] relates to S. aureus. Description: Full AET Challenge Test (Example 2). Type of test: cell-based, Staphylococcus aureus. Conditions: after 28 days; spike 10^5-10^6 CFU/ml. Here is the method: as §1
Test [6] has as its system E. coli. Description: Full AET Challenge Test (Example 2). Type of test: cell-based, Escherichia coli. Conditions: after 28 days; spike 10^5-10^6 CFU/ml. Here is the method:
as §1

For test [7], the system named is M. luteus. Description: Full AET Challenge Test (Example 2). Type of test: cell-based, Micrococcus Luteus. Conditions: after 28 days; spike 10^5-10^6 CFU/ml. How it is done:
as §1

Take `CN[C@]1(c2ccccc2Cl)CCCCC1=O.Cl` [S-ketamine hydrochloride, (S)-2-(2-chlorophenyl)-2-(methylamino)cyclohexanone hydrochloride]: in test [1], the “Effect on the original spike of Staphylococcus haemolyticus, in words” value was “strong antimicrobial properties”. Further, in test [2], the “Effect on the original spike of Aspergillus brasiliensis, in words” value is reported as “some inhibitory activity”. In addition, in test [3], the “Effect on the original spike of Candida albicans, in words” value is “strong antimicrobial properties”. Besides, in test [4], the “Effect on the original spike of Pseudomonas aeruginosa, in words” value was “strong antimicrobial properties”. Also, the “Effect on the original spike of Staphylococcus aureus, in words” value in test [5] was “strong antimicrobial properties”. In test [6], the “Effect on the original spike of Escherichia coli, in words” value is “strong antimicrobial properties”. For the same compound, in test [7], the “Effect on the original spike of Micrococcus Luteus, in words” value was “strong antimicrobial properties”.
